Laboratory results: patent US20050106305A1, “Beverage compositions comprising monatin and methods of making same” (Cargill, Inc., priority 2003, published 2005)
Like-named read-outs stand apart in the source and are kept apart here. Where a SMILES comes first, the peptide text is derived from it.

Legend:
[1] = Taste profiling of lemon/lime carbonates and colas; assay type: in vivo; conditions: HFCS 10%, aspartame 500 ppm, sucralose 200 ppm, blends 30.8 ppm/5.0%; for Average Score: score 1, poor-5, good, sucrose 10%
Protocol: Cola and lemon/lime beverages were prepared using the following formulations and sweetened with sucrose, HFCS (55% fructose), aspartame, sucralose, monatin (racemic mix described in Example 14), monatin/sucrose, or monatin/HFCS. One part of syrup was added to 5.5 parts carbonated water and evaluated.
Assessments were carried out ‘double blind’ by a panel of trained tasters. The sucrose-sweetened product was identified as the control and all other products randomly coded. Panelists were asked to assess the randomly coded sample relative to the control for the following attributes:
Panelists also were asked assign a score (1; poor-5; good) for the quality of the sweetener system. A summary of the comments generated together with the average score awarded is presented in Tables 12 and 13 for lemon/lime carbonates and colas, respectively. […] Blends of monatin/carbohydrate rated higher. In the cola, monatin was similar to aspartame.

[2] = Sensory evaluation of soft drinks (lemon/lime, orangeade, cola); assay type: in vivo; conditions: Lemon/lime soft drink; aspartame 500 ppm, sucralose 200 ppm, R,R monatin 42 ppm
Protocol: Beverages (cola, lemon-lime and orange) were formulated and sweetened with aspartame, sucralose or R,R monatin. Qualitative evaluation was carried out.
The term “throw” refers to dilution in water. For example, a throw of “1+4” means 1 part concentrate formulation to 4 parts water. Thus, if a concentrate formulation includes 0.021% wt/vol (i.e., 210 ppm) of R,R monatin, for example, a throw of 1+4 makes a diluted beverage containing 42 ppm (210 ppm/5) R,R monatin.
Final ready-to-drink beverages (after throw) contained sweetener concentrations as follows:
Evaluation of these soft drinks was carried out by a panel (n=6) of assessors who evaluated each set of drinks on separate tasting occasions.

[3] = Sensory stability of monatin and aspartame at pH 2.5, 3.0, 4.0 at 40° C.; assay type: physicochemical; conditions: for Rate constant (k) of sweetness loss / half-life: pseudo-first order assumed; for SEV / Retention of Sweetness: stored 40° C., monatin ~55 ppm, aspartame 400 ppm; for half-life: phosphate/citrate buffer, read-out: Half-life (t½) of sweetness loss (converted)
Protocol: The sensory stability of monatin solutions prepared at pH 2.5, 3.0 and 4.0 and stored at 40° C. was monitored for 100 days. Loss of sweetness from these solutions was compared with the losses of sweetness from aspartame solutions prepared and stored under identical conditions.
The sensory stability of monatin (8% SEV, ˜55 ppm, synthetic blend containing approximately 96% of the 2R,4R/2S, 4S enantiometric pair and 4% of the 2R,4S/2S,4R enantiometric pair) in phosphate/citrate buffers having a pH of 2.5, 3.0, and 4.0 was examined after storage at 40° C. The stability of monatin was compared to that of aspartame (400 ppm) in the same buffers. Three sucrose reference solutions were prepared in the same phosphate/citrate buffers as the monatin and aspartame solutions. All prepared solutions were stored in the dark.
Buffer compositions: pH 2.5 Phosphoric acid (75% solution) 0.127% (w/v) Tri-sodium citrate monohydrate 0.005% (w/v) • pH 3.0 Phosphoric acid (75% solution) 0.092% (w/v) Tri-sodium citrate monohydrate 0.031% (w/v) • pH 4.0 Phosphoric acid (75% solution) 0.071% (w/v) Tri-sodium citrate monohydrate 0.047% (w/v)
The sweetness of each sweetener relative to sucrose was assessed in duplicate by a panel (n=8) of trained sensory evaluators experienced in the sweetness estimation procedure. All samples (in the same buffers) were served in duplicate at a temperature of 22° C.±1° C. Monatin (test) solutions, coded with 3 digit random number codes were presented individually to panelists, in random order. Sucrose reference standards, ranging from 4.0-10.0% (w/v) sucrose, increasing in steps of 0.5% (w/v) sucrose were also provided. Panelists were asked to estimate sweetness by comparing the sweetness of the test solution to the sucrose standards. This was carried out by taking 3 sips of the test solution, followed by a sip of water, followed by 3 sips of sucrose standard followed by a sip of water, etc. Panelists were encouraged to estimate the sweetness to one decimal place, e.g., 6.8, 8.5. A five minute rest period was imposed between evaluating the test solutions. Panelists were also asked to rinse well and eat a cracker to reduce any potential carry over effects.
If a pseudo-first order breakdown reaction is assumed, a plot of logn percentage retention versus time (logn%RTN v. t) allows estimation of the half-life (t½) and rate constant (k) of sweetness loss under any given set of conditions. In so doing, the kinetics of monatin and aspartame sweetness loss may be summarized as follows in Table 25.

[4] = cola, sucrose 10% (control), monatin 80 ppm
[5] = lemon/lime carbonate, sucrose 10% (control), monatin 67 ppm

Sweetness Retained ([3]; after 100 days storage at pH 2.5 at 40° C.): 11%
Sweetness Retained ([3]; after 100 days storage at pH 3.0 at 40° C.): 31%
Sweetness Retained ([3]; after 100 days storage at pH 4.0 at 40° C.): 58%
Rate constant (k) of sweetness loss ([3]; pH 2.5, 40° C.): 0.013 day⁻¹
Retention of Sweetness ([3]; pH 2.5 buffer, day 1): 94.0%
Retention of Sweetness ([3]; pH 2.5 buffer, day 2): 92.6%
Retention of Sweetness ([3]; pH 2.5 buffer, day 3): 89.9%
Retention of Sweetness ([3]; pH 2.5 buffer, day 4): 85.7%
Retention of Sweetness ([3]; pH 2.5 buffer, day 7): 81.9%
Retention of Sweetness ([3]; pH 2.5 buffer, day 8): 81.5%
Retention of Sweetness ([3]; pH 2.5 buffer, day 9): 81.3%
Retention of Sweetness ([3]; pH 2.5 buffer, day 11): 79.8%
Retention of Sweetness ([3]; pH 2.5 buffer, day 50): 57.1%
Retention of Sweetness ([3]; pH 2.5 buffer, day 100): 10.9%
Rate constant (k) of sweetness loss ([3]; pH 3.0, 40° C.): 0.009 day⁻¹
Retention of Sweetness ([3]; pH 3.0 buffer, day 1): 96.5%
Retention of Sweetness ([3]; pH 3.0 buffer, day 2): 96.1%
Retention of Sweetness ([3]; pH 3.0 buffer, day 3): 92.3%
Retention of Sweetness ([3]; pH 3.0 buffer, day 4): 89.9%
Retention of Sweetness ([3]; pH 3.0 buffer, day 7): 86.3%
Retention of Sweetness ([3]; pH 3.0 buffer, day 8): 82.9%
Retention of Sweetness ([3]; pH 3.0 buffer, day 9): 83.1%
Retention of Sweetness ([3]; pH 3.0 buffer, day 11): 81.5%
Retention of Sweetness ([3]; pH 3.0 buffer, day 50): 65.9%
Retention of Sweetness ([3]; pH 3.0 buffer, day 100): 30.8%
Rate constant (k) of sweetness loss ([3]; pH 4.0, 40° C.): 0.005 day⁻¹
Retention of Sweetness ([3]; pH 4.0 buffer, day 3): 95.1%
Retention of Sweetness ([3]; pH 4.0 buffer, day 8): 87.8%
Retention of Sweetness ([3]; pH 4.0 buffer, day 11): 84.8%
Retention of Sweetness ([3]; pH 4.0 buffer, day 17): 81.0%
Retention of Sweetness ([3]; pH 4.0 buffer, day 24): 82.4%
Retention of Sweetness ([3]; pH 4.0 buffer, day 50): 74.5%
Retention of Sweetness ([3]; pH 4.0 buffer, day 100): 57.7%
half-life ([3]; pH 2.5, 40° C.): 55 days
half-life ([3]; pH 3.0, 40° C.): 75 days
half-life ([3]; pH 4.0, 40° C.): 140 days
Structure (SMILES): COC(=O)[C@H](Cc1ccccc1)NC(=O)[C@@H](N)CC(=O)O [Aspartame, aspartame] (H-Asp-Phe-OMe)
Aftertaste [1, 4]: Lingering sweetness
Flavor Profile [1, 4]: Sweet flavor, flatter
Mouthfeel [1, 4]: Thinner mouthfeel
Sweetness Profile [1, 4]: Delayed sweetness
Flavor Profile [1, 5]: Slightly lacking upfront.
Sweetness Profile [1, 5]: Sweetness onset quite
Average Score ([1]; cola, monatin 80 ppm): 3.3
Average Score ([1]; lemon/lime carbonate, monatin 67 ppm): 4.0
Comments (sensory evaluation) [2]: Balanced sweetness/acidity profile. Very
SEV ([3]; pH 2.5 buffer, day 0): 7.34 % sucrose
SEV ([3]; pH 2.5 buffer, day 1): 6.90 % sucrose
SEV ([3]; pH 2.5 buffer, day 2): 6.80 % sucrose
SEV ([3]; pH 2.5 buffer, day 3): 6.60 % sucrose
SEV ([3]; pH 2.5 buffer, day 4): 6.29 % sucrose
SEV ([3]; pH 2.5 buffer, day 7): 6.01 % sucrose
SEV ([3]; pH 2.5 buffer, day 8): 5.98 % sucrose
SEV ([3]; pH 2.5 buffer, day 9): 5.97 % sucrose
SEV ([3]; pH 2.5 buffer, day 11): 5.86 % sucrose
SEV ([3]; pH 2.5 buffer, day 50): 4.19 % sucrose
SEV ([3]; pH 2.5 buffer, day 100): 0.80 % sucrose
SEV ([3]; pH 3.0 buffer, day 0): 7.15 % sucrose
SEV ([3]; pH 3.0 buffer, day 1): 6.90 % sucrose
SEV ([3]; pH 3.0 buffer, day 2): 6.87 % sucrose
SEV ([3]; pH 3.0 buffer, day 3): 6.60 % sucrose
SEV ([3]; pH 3.0 buffer, day 4): 6.43 % sucrose
SEV ([3]; pH 3.0 buffer, day 7): 6.17 % sucrose
SEV ([3]; pH 3.0 buffer, day 8): 5.93 % sucrose
SEV ([3]; pH 3.0 buffer, day 9): 5.94 % sucrose
SEV ([3]; pH 3.0 buffer, day 11): 5.83 % sucrose
SEV ([3]; pH 3.0 buffer, day 50): 4.71 % sucrose
SEV ([3]; pH 3.0 buffer, day 100): 2.20 % sucrose
SEV ([3]; pH 4.0 buffer, day 0): 7.10 % sucrose
SEV ([3]; pH 4.0 buffer, day 3): 6.75 % sucrose
SEV ([3]; pH 4.0 buffer, day 8): 6.23 % sucrose
SEV ([3]; pH 4.0 buffer, day 11): 6.02 % sucrose
SEV ([3]; pH 4.0 buffer, day 17): 5.75 % sucrose
SEV ([3]; pH 4.0 buffer, day 24): 5.85 % sucrose
SEV ([3]; pH 4.0 buffer, day 50): 5.29 % sucrose
SEV ([3]; pH 4.0 buffer, day 100): 4.10 % sucrose
